# Measured values as given in the kinase profiling compilation of Christmann-Franck et al. (2016).
# Target: FLT3 (human) (UniProt P36888)
# Experiment: radiometric filter-binding kinase assay, Kinase HotSpot
# Settings: compound 0.5 µM; ATP 10 µM
row,Compound,residual activity [%]
1,COc1cc2nccc(Oc3ccc(NC(=S)NC(=O)c4ccccc4C)cc3)c2cc1OC,46.6
2,CCN1/C(=C/C(C)=O)Sc2ccc(OC)cc21,76.1
3,O=c1cc(-c2cccc3c2Sc2ccccc2S3)oc(N2CCOCC2)c1,98.4

# Target: STK11 (human) (UniProt Q15831)
# Experiment: as above
# Settings: compound 0.5 µM; ATP 10 µM
row,Compound,residual activity [%]
1,COc1cc2nccc(Oc3ccc(NC(=S)NC(=O)c4ccccc4C)cc3)c2cc1OC,106
2,CCN1/C(=C/C(C)=O)Sc2ccc(OC)cc21,86.6
3,O=c1cc(-c2cccc3c2Sc2ccccc2S3)oc(N2CCOCC2)c1,96.5

# Target: TAOK1 (human) (UniProt Q7L7X3)
# Experiment: as above
# Settings: compound 0.5 µM; ATP 10 µM
row,Compound,residual activity [%]
1,COc1cc2nccc(Oc3ccc(NC(=S)NC(=O)c4ccccc4C)cc3)c2cc1OC,71.3
2,CCN1/C(=C/C(C)=O)Sc2ccc(OC)cc21,92.4
3,O=c1cc(-c2cccc3c2Sc2ccccc2S3)oc(N2CCOCC2)c1,107

# Target: PAK6 (human) (UniProt Q9NQU5)
# Sequence (Q9NQU5 whole entry, looked up): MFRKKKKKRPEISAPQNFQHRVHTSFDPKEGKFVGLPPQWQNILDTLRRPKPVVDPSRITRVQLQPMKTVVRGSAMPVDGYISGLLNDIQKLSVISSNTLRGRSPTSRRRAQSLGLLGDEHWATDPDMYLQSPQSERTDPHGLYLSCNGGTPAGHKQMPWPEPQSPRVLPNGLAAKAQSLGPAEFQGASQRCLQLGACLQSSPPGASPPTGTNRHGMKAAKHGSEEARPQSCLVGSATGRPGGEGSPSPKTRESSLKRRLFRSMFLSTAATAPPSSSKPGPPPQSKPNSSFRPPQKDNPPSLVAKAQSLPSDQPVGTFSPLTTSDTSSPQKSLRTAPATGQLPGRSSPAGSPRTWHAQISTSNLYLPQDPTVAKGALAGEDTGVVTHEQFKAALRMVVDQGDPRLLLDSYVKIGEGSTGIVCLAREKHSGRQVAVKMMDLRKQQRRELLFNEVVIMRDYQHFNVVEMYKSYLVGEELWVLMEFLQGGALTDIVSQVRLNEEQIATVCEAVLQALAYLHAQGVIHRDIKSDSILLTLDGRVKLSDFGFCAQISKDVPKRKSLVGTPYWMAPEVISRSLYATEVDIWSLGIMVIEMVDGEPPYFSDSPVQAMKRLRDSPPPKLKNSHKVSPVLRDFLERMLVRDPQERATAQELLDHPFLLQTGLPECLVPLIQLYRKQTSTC
# Experiment: as above
# Settings: compound 0.5 µM; ATP 10 µM
row,Compound,residual activity [%]
1,COc1cc2nccc(Oc3ccc(NC(=S)NC(=O)c4ccccc4C)cc3)c2cc1OC,95.8
2,CCN1/C(=C/C(C)=O)Sc2ccc(OC)cc21,95.6
3,O=c1cc(-c2cccc3c2Sc2ccccc2S3)oc(N2CCOCC2)c1,95.6

# Target: LIMK1 (human) (UniProt P53667)
# Experiment: as above
# Settings: compound 0.5 µM; ATP 10 µM
row,Compound,residual activity [%]
1,COc1cc2nccc(Oc3ccc(NC(=S)NC(=O)c4ccccc4C)cc3)c2cc1OC,82.7
2,CCN1/C(=C/C(C)=O)Sc2ccc(OC)cc21,108
3,O=c1cc(-c2cccc3c2Sc2ccccc2S3)oc(N2CCOCC2)c1,103

# Target: GRK7 (human) (UniProt Q8WTQ7)
# Experiment: as above
# Settings: compound 0.5 µM; ATP 10 µM
row,Compound,residual activity [%]
1,COc1cc2nccc(Oc3ccc(NC(=S)NC(=O)c4ccccc4C)cc3)c2cc1OC,95.6
2,CCN1/C(=C/C(C)=O)Sc2ccc(OC)cc21,104
3,O=c1cc(-c2cccc3c2Sc2ccccc2S3)oc(N2CCOCC2)c1,99.2

# Target: GSK3B (human) (UniProt P49841)
# Experiment: as above
# Settings: compound 0.5 µM; ATP 10 µM
row,Compound,residual activity [%]
1,COc1cc2nccc(Oc3ccc(NC(=S)NC(=O)c4ccccc4C)cc3)c2cc1OC,97.7
2,CCN1/C(=C/C(C)=O)Sc2ccc(OC)cc21,98.1
3,O=c1cc(-c2cccc3c2Sc2ccccc2S3)oc(N2CCOCC2)c1,98.7

# Target: VRK1 (human) (UniProt Q99986)
# Sequence (Q99986 whole entry, looked up): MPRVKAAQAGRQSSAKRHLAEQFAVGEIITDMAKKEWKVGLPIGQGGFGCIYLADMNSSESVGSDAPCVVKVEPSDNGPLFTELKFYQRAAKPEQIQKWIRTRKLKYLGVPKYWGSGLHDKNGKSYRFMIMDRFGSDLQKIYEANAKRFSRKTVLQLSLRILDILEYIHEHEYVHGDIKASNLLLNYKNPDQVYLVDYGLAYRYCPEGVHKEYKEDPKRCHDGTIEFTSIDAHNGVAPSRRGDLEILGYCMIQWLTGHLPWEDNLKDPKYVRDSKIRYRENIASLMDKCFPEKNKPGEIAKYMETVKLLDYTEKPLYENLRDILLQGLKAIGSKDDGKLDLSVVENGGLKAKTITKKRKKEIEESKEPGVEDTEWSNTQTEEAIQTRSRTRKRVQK
# Experiment: as above
# Settings: compound 0.5 µM; ATP 10 µM
row,Compound,residual activity [%]
1,COc1cc2nccc(Oc3ccc(NC(=S)NC(=O)c4ccccc4C)cc3)c2cc1OC,96.3
2,CCN1/C(=C/C(C)=O)Sc2ccc(OC)cc21,98.2
3,O=c1cc(-c2cccc3c2Sc2ccccc2S3)oc(N2CCOCC2)c1,90.7

# Target: PKN1 (human) (UniProt Q16512)
# Sequence (Q16512 whole entry, looked up): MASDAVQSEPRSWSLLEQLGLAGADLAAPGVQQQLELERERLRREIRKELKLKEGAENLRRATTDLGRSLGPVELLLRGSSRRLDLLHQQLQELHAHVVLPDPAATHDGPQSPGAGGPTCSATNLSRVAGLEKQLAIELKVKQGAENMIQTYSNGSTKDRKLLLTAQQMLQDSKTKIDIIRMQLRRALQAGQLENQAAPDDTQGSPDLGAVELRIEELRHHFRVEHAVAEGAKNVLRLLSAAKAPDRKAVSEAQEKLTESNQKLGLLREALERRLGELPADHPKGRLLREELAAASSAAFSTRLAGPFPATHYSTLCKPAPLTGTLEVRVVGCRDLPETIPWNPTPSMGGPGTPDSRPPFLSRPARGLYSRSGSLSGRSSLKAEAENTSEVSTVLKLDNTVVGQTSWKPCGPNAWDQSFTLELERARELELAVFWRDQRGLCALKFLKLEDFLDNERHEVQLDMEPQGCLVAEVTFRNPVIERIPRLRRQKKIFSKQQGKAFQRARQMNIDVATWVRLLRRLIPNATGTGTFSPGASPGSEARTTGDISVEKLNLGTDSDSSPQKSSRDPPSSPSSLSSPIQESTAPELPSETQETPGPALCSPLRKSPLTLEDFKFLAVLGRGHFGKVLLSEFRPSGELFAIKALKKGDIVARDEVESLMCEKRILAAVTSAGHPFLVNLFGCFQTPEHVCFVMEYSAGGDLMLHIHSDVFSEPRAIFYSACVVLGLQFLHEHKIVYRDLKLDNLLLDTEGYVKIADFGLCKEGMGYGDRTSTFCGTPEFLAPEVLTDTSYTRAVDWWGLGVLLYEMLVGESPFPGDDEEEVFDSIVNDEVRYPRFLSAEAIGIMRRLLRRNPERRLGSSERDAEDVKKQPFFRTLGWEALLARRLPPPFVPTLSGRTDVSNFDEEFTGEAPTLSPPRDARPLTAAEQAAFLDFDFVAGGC
# Experiment: as above
# Settings: compound 0.5 µM; ATP 10 µM
row,Compound,residual activity [%]
1,COc1cc2nccc(Oc3ccc(NC(=S)NC(=O)c4ccccc4C)cc3)c2cc1OC,99.2
2,CCN1/C(=C/C(C)=O)Sc2ccc(OC)cc21,100
3,O=c1cc(-c2cccc3c2Sc2ccccc2S3)oc(N2CCOCC2)c1,94.4

# Target: FER (human) (UniProt P16591)
# Experiment: as above
# Settings: compound 0.5 µM; ATP 10 µM
row,Compound,residual activity [%]
1,COc1cc2nccc(Oc3ccc(NC(=S)NC(=O)c4ccccc4C)cc3)c2cc1OC,58.2
2,CCN1/C(=C/C(C)=O)Sc2ccc(OC)cc21,87.9
3,O=c1cc(-c2cccc3c2Sc2ccccc2S3)oc(N2CCOCC2)c1,103

# Target: PRKCB1 (human) (UniProt P05771)
# Sequence (P05771 whole entry, looked up): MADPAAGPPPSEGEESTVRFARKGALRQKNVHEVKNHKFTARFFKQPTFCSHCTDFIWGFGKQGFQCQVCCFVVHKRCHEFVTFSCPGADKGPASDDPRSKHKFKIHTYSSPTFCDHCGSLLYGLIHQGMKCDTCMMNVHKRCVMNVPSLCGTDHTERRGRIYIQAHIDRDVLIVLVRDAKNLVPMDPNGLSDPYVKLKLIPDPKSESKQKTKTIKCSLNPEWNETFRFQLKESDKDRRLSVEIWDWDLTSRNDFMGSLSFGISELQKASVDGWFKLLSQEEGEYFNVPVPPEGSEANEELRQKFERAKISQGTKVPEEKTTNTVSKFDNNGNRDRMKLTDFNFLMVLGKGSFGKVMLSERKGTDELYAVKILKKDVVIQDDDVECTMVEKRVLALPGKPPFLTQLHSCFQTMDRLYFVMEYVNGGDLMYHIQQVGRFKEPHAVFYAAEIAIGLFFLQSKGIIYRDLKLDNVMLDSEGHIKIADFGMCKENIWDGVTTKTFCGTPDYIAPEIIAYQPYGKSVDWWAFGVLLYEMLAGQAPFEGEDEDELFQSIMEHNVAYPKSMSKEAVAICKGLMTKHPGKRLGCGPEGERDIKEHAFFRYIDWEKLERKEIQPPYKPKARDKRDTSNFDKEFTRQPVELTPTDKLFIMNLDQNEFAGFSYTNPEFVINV
# Experiment: as above
# Settings: compound 0.5 µM; ATP 10 µM
row,Compound,residual activity [%]
1,COc1cc2nccc(Oc3ccc(NC(=S)NC(=O)c4ccccc4C)cc3)c2cc1OC,91.9
2,CCN1/C(=C/C(C)=O)Sc2ccc(OC)cc21,99.4
3,O=c1cc(-c2cccc3c2Sc2ccccc2S3)oc(N2CCOCC2)c1,103

# Target: EPHA2 (human) (UniProt P29317)
# Experiment: as above
# Settings: compound 0.5 µM; ATP 10 µM
row,Compound,residual activity [%]
1,COc1cc2nccc(Oc3ccc(NC(=S)NC(=O)c4ccccc4C)cc3)c2cc1OC,86.9
2,CCN1/C(=C/C(C)=O)Sc2ccc(OC)cc21,99.1
3,O=c1cc(-c2cccc3c2Sc2ccccc2S3)oc(N2CCOCC2)c1,96.2

# Target: PTK2 (human) (UniProt Q05397)
# Experiment: as above
# Settings: compound 0.5 µM; ATP 10 µM
row,Compound,residual activity [%]
1,COc1cc2nccc(Oc3ccc(NC(=S)NC(=O)c4ccccc4C)cc3)c2cc1OC,90.7
2,CCN1/C(=C/C(C)=O)Sc2ccc(OC)cc21,108
3,O=c1cc(-c2cccc3c2Sc2ccccc2S3)oc(N2CCOCC2)c1,113

# Target: SRPK2 (human) (UniProt P78362)
# Experiment: as above
# Settings: compound 0.5 µM; ATP 10 µM
row,Compound,residual activity [%]
1,COc1cc2nccc(Oc3ccc(NC(=S)NC(=O)c4ccccc4C)cc3)c2cc1OC,93.4
2,CCN1/C(=C/C(C)=O)Sc2ccc(OC)cc21,95.8
3,O=c1cc(-c2cccc3c2Sc2ccccc2S3)oc(N2CCOCC2)c1,110

# Target: RPS6KB2 (human) (UniProt Q9UBS0)
# Experiment: as above
# Settings: compound 0.5 µM; ATP 10 µM
row,Compound,residual activity [%]
1,COc1cc2nccc(Oc3ccc(NC(=S)NC(=O)c4ccccc4C)cc3)c2cc1OC,97.3
2,CCN1/C(=C/C(C)=O)Sc2ccc(OC)cc21,107
3,O=c1cc(-c2cccc3c2Sc2ccccc2S3)oc(N2CCOCC2)c1,102

# Target: TAOK2 (human) (UniProt Q9UL54)
# Sequence (Q9UL54 whole entry, looked up): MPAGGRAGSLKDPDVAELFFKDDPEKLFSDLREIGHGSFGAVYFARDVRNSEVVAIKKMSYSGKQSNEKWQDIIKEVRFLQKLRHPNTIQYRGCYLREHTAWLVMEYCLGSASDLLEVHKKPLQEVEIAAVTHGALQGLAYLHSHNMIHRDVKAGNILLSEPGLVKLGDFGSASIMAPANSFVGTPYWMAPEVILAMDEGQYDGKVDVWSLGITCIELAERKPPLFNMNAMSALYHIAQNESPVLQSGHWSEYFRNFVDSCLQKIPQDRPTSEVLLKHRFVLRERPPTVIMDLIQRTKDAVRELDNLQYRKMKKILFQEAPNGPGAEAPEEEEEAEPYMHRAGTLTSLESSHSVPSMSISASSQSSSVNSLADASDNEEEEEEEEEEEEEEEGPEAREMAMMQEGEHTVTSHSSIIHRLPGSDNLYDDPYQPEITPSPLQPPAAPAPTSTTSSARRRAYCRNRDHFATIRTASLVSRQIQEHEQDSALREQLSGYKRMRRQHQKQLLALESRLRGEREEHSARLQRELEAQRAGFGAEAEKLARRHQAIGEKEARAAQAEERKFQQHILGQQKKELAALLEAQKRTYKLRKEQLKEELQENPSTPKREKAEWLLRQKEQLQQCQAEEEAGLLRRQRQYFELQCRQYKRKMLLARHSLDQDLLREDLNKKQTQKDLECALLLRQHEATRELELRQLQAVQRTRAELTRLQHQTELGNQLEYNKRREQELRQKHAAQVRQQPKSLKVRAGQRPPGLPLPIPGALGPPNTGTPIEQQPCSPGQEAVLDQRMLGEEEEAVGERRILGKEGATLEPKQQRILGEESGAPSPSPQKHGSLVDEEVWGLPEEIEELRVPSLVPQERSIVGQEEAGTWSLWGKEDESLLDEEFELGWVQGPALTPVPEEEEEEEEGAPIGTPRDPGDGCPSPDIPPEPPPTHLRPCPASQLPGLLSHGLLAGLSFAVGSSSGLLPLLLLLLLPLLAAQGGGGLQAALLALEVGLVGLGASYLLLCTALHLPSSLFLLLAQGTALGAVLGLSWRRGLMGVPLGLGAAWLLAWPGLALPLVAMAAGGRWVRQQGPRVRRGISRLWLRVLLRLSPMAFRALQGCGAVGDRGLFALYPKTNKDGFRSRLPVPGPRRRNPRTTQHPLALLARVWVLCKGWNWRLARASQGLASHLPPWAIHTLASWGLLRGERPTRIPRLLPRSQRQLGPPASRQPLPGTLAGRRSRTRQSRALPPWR
# Experiment: as above
# Settings: compound 0.5 µM; ATP 10 µM
row,Compound,residual activity [%]
1,COc1cc2nccc(Oc3ccc(NC(=S)NC(=O)c4ccccc4C)cc3)c2cc1OC,91.9
2,CCN1/C(=C/C(C)=O)Sc2ccc(OC)cc21,101
3,O=c1cc(-c2cccc3c2Sc2ccccc2S3)oc(N2CCOCC2)c1,101

# Target: STK10 (human) (UniProt O94804)
# Experiment: as above
# Settings: compound 0.5 µM; ATP 10 µM
row,Compound,residual activity [%]
1,COc1cc2nccc(Oc3ccc(NC(=S)NC(=O)c4ccccc4C)cc3)c2cc1OC,11.9
2,CCN1/C(=C/C(C)=O)Sc2ccc(OC)cc21,96.8
3,O=c1cc(-c2cccc3c2Sc2ccccc2S3)oc(N2CCOCC2)c1,97.1

# Target: ADRBK2 (human) (UniProt P35626)
# Sequence (P35626 whole entry, looked up): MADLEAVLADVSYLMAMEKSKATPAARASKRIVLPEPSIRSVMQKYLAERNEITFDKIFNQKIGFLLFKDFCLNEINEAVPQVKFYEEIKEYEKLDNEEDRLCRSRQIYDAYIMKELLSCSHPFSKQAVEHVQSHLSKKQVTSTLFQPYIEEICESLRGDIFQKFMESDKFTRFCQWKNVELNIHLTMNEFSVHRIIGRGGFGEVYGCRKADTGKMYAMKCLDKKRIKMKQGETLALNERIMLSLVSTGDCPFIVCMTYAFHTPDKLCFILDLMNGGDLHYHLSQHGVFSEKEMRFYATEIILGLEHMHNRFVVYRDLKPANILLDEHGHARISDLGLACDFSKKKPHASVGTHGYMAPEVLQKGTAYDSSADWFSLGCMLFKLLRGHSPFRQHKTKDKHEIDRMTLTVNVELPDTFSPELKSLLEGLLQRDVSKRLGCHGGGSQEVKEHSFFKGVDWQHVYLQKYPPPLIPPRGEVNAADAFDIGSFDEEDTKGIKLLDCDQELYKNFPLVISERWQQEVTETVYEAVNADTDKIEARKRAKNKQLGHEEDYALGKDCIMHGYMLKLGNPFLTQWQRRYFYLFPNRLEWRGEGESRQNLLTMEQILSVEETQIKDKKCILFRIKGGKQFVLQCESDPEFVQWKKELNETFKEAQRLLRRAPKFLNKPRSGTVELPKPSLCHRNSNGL
# Experiment: as above
# Settings: compound 0.5 µM; ATP 10 µM
row,Compound,residual activity [%]
1,COc1cc2nccc(Oc3ccc(NC(=S)NC(=O)c4ccccc4C)cc3)c2cc1OC,94.9
2,CCN1/C(=C/C(C)=O)Sc2ccc(OC)cc21,82.9
3,O=c1cc(-c2cccc3c2Sc2ccccc2S3)oc(N2CCOCC2)c1,100

# Target: CDK1 CCNA2 (human) (UniProt P06493+P20248)
# Experiment: as above
# Settings: compound 0.5 µM; ATP 10 µM
row,Compound,residual activity [%]
1,COc1cc2nccc(Oc3ccc(NC(=S)NC(=O)c4ccccc4C)cc3)c2cc1OC,91.6
2,CCN1/C(=C/C(C)=O)Sc2ccc(OC)cc21,97.5
3,O=c1cc(-c2cccc3c2Sc2ccccc2S3)oc(N2CCOCC2)c1,104

# Target: STK17A (human) (UniProt Q9UEE5)
# Sequence (Q9UEE5 whole entry, looked up): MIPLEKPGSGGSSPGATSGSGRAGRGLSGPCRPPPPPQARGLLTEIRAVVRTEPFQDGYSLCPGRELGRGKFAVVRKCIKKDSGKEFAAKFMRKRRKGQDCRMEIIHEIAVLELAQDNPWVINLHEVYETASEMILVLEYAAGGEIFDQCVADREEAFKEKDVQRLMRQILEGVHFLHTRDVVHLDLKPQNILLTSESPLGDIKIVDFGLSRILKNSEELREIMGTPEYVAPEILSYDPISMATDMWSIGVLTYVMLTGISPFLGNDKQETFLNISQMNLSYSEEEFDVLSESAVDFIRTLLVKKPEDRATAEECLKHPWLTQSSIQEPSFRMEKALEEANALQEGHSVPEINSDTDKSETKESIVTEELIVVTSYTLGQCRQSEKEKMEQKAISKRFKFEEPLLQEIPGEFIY
# Experiment: as above
# Settings: compound 0.5 µM; ATP 10 µM
row,Compound,residual activity [%]
1,COc1cc2nccc(Oc3ccc(NC(=S)NC(=O)c4ccccc4C)cc3)c2cc1OC,82.3
2,CCN1/C(=C/C(C)=O)Sc2ccc(OC)cc21,99.3
3,O=c1cc(-c2cccc3c2Sc2ccccc2S3)oc(N2CCOCC2)c1,98.2

# Target: CDK6 CCND1 (human) (UniProt Q00534+P24385)
# Experiment: as above
# Settings: compound 0.5 µM; ATP 10 µM
row,Compound,residual activity [%]
1,COc1cc2nccc(Oc3ccc(NC(=S)NC(=O)c4ccccc4C)cc3)c2cc1OC,87.1
2,CCN1/C(=C/C(C)=O)Sc2ccc(OC)cc21,108
3,O=c1cc(-c2cccc3c2Sc2ccccc2S3)oc(N2CCOCC2)c1,98.1
